Measured values published in PubChem BioAssay AID330 (DTP/NCI, 2004).
“And” between values parts separate entries of the source, which are not always exact repeats. Equal entries are not always repeated. Toxic doses and inconclusive results are not listed. How the source made its calls: active means survival T/C of 150% or more; inactive means T/C below 125% in these data.

Test system: P388 leukemia ip, CD2F1 mice, survival T/C
Test: NCI In Vivo Anticancer Drug Screen. Data for tumor model P388 Leukemia (intraperitoneal) in CD2F1 (CDF1) mice
Conditions: endpoint: median survival time, higher = longer survival
Outline: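 Mice carrying the transplanted tumor received test compound or vehicle. Survival was recorded in each group, and the value is the treated-group measurement divided by that of the vehicle-treated control group.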

[1] = dose: 60.0 mg/kg/injection, schedule: Q01DX005 (ip), vehicle: saline with Tween-80
[2] = dose: 120.0 mg/kg/injection, schedule: Q01DX005 (ip), vehicle: saline with Tween-80
[3] = dose: 240.0 mg/kg/injection, schedule: Q01DX005 (ip), vehicle: saline with Tween-80
[4] = dose: 50.0 mg/kg/injection, schedule: Q01DX005 (ip), vehicle: Klucel (hydroxypropylcellulose) (HPC)
[5] = dose: 100.0 mg/kg/injection, schedule: Q01DX005 (ip), vehicle: Klucel (hydroxypropylcellulose) (HPC)
[6] = dose: 200.0 mg/kg/injection, schedule: Q01DX005 (ip), vehicle: Klucel (hydroxypropylcellulose) (HPC)
[7] = dose: 100.0 mg/kg/injection, schedule: Q04DX003 (ip), vehicle: Klucel (hydroxypropylcellulose) (HPC)
[8] = dose: 200.0 mg/kg/injection, schedule: Q04DX003 (ip), vehicle: Klucel (hydroxypropylcellulose) (HPC)
[9] = dose: 400.0 mg/kg/injection, schedule: Q04DX003 (ip), vehicle: Klucel (hydroxypropylcellulose) (HPC)
[10] = dose: 100.0 mg/kg/injection, schedule: Q01DX009 (ip), vehicle: saline with Tween-80
[11] = dose: 200.0 mg/kg/injection, schedule: Q01DX009 (ip), vehicle: saline with Tween-80
[12] = dose: 50.0 mg/kg/injection, schedule: Q01DX005 (ip), vehicle: saline with Tween-80
[13] = dose: 100.0 mg/kg/injection, schedule: Q01DX005 (ip), vehicle: saline with Tween-80
[14] = dose: 200.0 mg/kg/injection, schedule: Q01DX005 (ip), vehicle: saline with Tween-80
[15] = dose: 12.5 mg/kg/injection, schedule: Q01DX009 (ip), vehicle: distilled water + Tween-80
[16] = dose: 25.0 mg/kg/injection, schedule: Q01DX009 (ip), vehicle: distilled water + Tween-80

Measured: T/C

O=S(=O)(Nc1ccc(C(F)(F)F)cc1)c1ccc(F)cc1
inactive: [1] 100 % of control | [2] 100 % of control | [3] 104 % of control

COc1cc(C2=N/C(=C/c3cccc(O)c3O)C(=O)O2)cc(OC)c1OC
inactive: dose: 6.25 mg/kg/injection, schedule: Q01DX009 (ip), vehicle: Klucel (hydroxypropylcellulose) (HPC) 101 % of control | dose: 12.5 mg/kg/injection, schedule: Q01DX009 (ip), vehicle: Klucel (hydroxypropylcellulose) (HPC) 96 % of control

COc1cc(CCC(C)=O)ccc1OC(=O)c1c(-c2c(F)cccc2Cl)noc1C
inactive: [4] 91 % of control | [5] 91 % of control | [6] 91 % of control

N=c1nc(N)nc2c3cc(Br)ccc3nnn12
inactive: [1] 113 % of control | [2] 117 % of control | [3] 108 % of control

CCNC(=O)C1CCN(Cc2c[nH]c3ccccc23)CC1
inactive: dose: 50.0 mg/kg/injection, schedule: Q04DX003 (ip), vehicle: saline with Tween-80 113 % of control | dose: 100.0 mg/kg/injection, schedule: Q04DX003 (ip), vehicle: saline with Tween-80 93 % of control | dose: 200.0 mg/kg/injection, schedule: Q04DX003 (ip), vehicle: saline with Tween-80 102 % of control

FC(F)(F)C1(C(F)(F)F)OS2(OC1(C(F)(F)F)C(F)(F)F)OC(C(F)(F)F)(C(F)(F)F)C(C(F)(F)F)(C(F)(F)F)O2
inactive: [7] 91 % of control | [8] 91 % of control | [9] 105 % of control

CCn1c(Cl)c(/C=N/NC(N)=S)c2ccccc21
inactive: dose: 100.0 mg/kg/injection, schedule: Q01DX001 (ip), vehicle: Klucel (hydroxypropylcellulose) (HPC) 97 % of control | dose: 200.0 mg/kg/injection, schedule: Q01DX001 (ip), vehicle: Klucel (hydroxypropylcellulose) (HPC) 91 % of control

O=C1c2ccccc2C(=O)c2c1cn1c2Cc2ccccc2C1
inactive: dose: 30.0 mg/kg/injection, schedule: Q01DX005 (ip), vehicle: Klucel (hydroxypropylcellulose) (HPC) 103 % of control and 97 % of control | dose: 60.0 mg/kg/injection, schedule: Q01DX005 (ip), vehicle: Klucel (hydroxypropylcellulose) (HPC) 113 % of control and 94 % of control | dose: 120.0 mg/kg/injection, schedule: Q01DX005 (ip), vehicle: Klucel (hydroxypropylcellulose) (HPC) 103 % of control and 113 % of control and 96 % of control | dose: 0.25 ml/mouse/injection, schedule: Q01DX005 (ip), vehicle: other 107 % of control | dose: 0.5 ml/mouse/injection, schedule: Q01DX005 (ip), vehicle: other 106 % of control

CC(C)(Nc1ccccc1)c1cccs1
inactive: [10] 109 % of control | [11] 109 % of control | dose: 400.0 mg/kg/injection, schedule: Q01DX009 (ip), vehicle: saline with Tween-80 95 % of control

OC1c2ccccc2-c2nc3ccccc3cc21 (stereo not drawn)
inactive: [4] 110 % of control and 92 % of control | [5] 102 % of control and 86 % of control | [6] 107 % of control

COc1cc2c[n+]3c4c(cccc4c2cc1OC)CCC3
inactive: dose: 12.5 mg/kg/injection, schedule: Q01DX009 (ip), vehicle: water 109 % of control | dose: 25.0 mg/kg/injection, schedule: Q01DX009 (ip), vehicle: water 108 % of control | dose: 50.0 mg/kg/injection, schedule: Q01DX009 (ip), vehicle: water 110 % of control

CC1CCCC(C2CC3CCCCC3C(N)[N-]2)[N-]1.O=[N+]([O-])O.O=[N+]([O-])O.[Cu+2] (stereo not drawn)
inactive: dose: 6.25 mg/kg/injection, schedule: Q04DX002 (ip), vehicle: suspension in saline 93 % of control | dose: 12.5 mg/kg/injection, schedule: Q04DX002 (ip), vehicle: suspension in saline 110 % of control

Nc1ccc(C(=O)NO)cc1
inactive: dose: 25.0 mg/kg/injection, schedule: Q01DX009 (ip), vehicle: suspension in saline 99 % of control | dose: 50.0 mg/kg/injection, schedule: Q01DX009 (ip), vehicle: suspension in saline 99 % of control | dose: 100.0 mg/kg/injection, schedule: Q01DX009 (ip), vehicle: suspension in saline 96 % of control | dose: 200.0 mg/kg/injection, schedule: Q01DX009 (ip), vehicle: suspension in saline 109 % of control

CN(C)C(=S)Oc1ccccc1C1SCCS1
inactive: [12] 101 % of control | [13] 99 % of control | [14] 105 % of control

O=C1C=CC2C=CC1C=C2
inactive: dose: 25.0 mg/kg/injection, schedule: Q01DX005 (ip), vehicle: saline with Tween-80 116 % of control | [12] 104 % of control | [1] 118 % of control | [13] 122 % of control

C=CCSc1nc(N)nc2nc[nH]c12
inactive: dose: 50.0 mg/kg/injection, schedule: Q01DX009 (ip), vehicle: saline with Tween-80 100 % of control | [10] 100 % of control | [11] 90 % of control

Fc1cccc(Cl)c1CSc1n[nH]c(C(F)(F)F)n1
inactive: [1] 102 % of control | [2] 100 % of control | [3] 111 % of control

N/C(=N\OC(=O)Nc1ccc(CSc2ccc(Cl)cc2)o1)c1ccccn1
inactive: dose: 12.5 mg/kg/injection, schedule: Q01DX005 (ip), vehicle: Klucel (hydroxypropylcellulose) (HPC) 106 % of control and 109 % of control | dose: 25.0 mg/kg/injection, schedule: Q01DX005 (ip), vehicle: Klucel (hydroxypropylcellulose) (HPC) 107 % of control and 110 % of control | [4] 110 % of control and 114 % of control and 120 % of control | [5] 109 % of control and 111 % of control

S=C(Nc1ccccc1)Nc1ccc(N(CCCl)CCCl)cc1
inactive: [7] 106 % of control | [8] 114 % of control | [9] 111 % of control

COc1ccc(/C(=N/N)c2ccccc2)cc1
inactive: [7] 100 % of control | [8] 114 % of control

Cc1cc2c(cc1CC(=O)O)CC(=O)NC2
inactive: dose: 1.56 mg/kg/injection, schedule: Q01DX009 (ip), vehicle: distilled water + Tween-80 109 % of control | dose: 3.13 mg/kg/injection, schedule: Q01DX009 (ip), vehicle: distilled water + Tween-80 104 % of control | dose: 6.25 mg/kg/injection, schedule: Q01DX009 (ip), vehicle: distilled water + Tween-80 123 % of control and 95 % of control | [15] 101 % of control | [16] 101 % of control and 96 % of control | dose: 50.0 mg/kg/injection, schedule: Q01DX009 (ip), vehicle: distilled water + Tween-80 104 % of control and 96 % of control | dose: 100.0 mg/kg/injection, schedule: Q01DX009 (ip), vehicle: distilled water + Tween-80 102 % of control and 95 % of control | dose: 200.0 mg/kg/injection, schedule: Q01DX009 (ip), vehicle: distilled water + Tween-80 100 % of control | dose: 400.0 mg/kg/injection, schedule: Q01DX009 (ip), vehicle: distilled water + Tween-80 92 % of control

CCC1OCC(C(Cl)CCl)O1 (stereo not drawn)
inactive: [12] 102 % of control | [13] 111 % of control | dose: 132.0 mg/kg/injection, schedule: Q01DX009 (ip), vehicle: saline with Tween-80 100 % of control | [14] 103 % of control | [11] 118 % of control | dose: 300.0 mg/kg/injection, schedule: Q01DX009 (ip), vehicle: saline with Tween-80 118 % of control

O=C(Nc1ccccc1)/C(Cl)=C(/Cl)C(=O)C(Cl)(Cl)Cl
inactive: [15] 103 % of control | [16] 103 % of control

COC(=O)c1cc(-c2ccc(F)cc2)[nH]c(=O)c1C#N
inactive: [1] 97 % of control | [2] 106 % of control | [3] 104 % of control

Nc1nnc(/C=C/c2ccc(Cl)cc2)o1
inactive: [1] 98 % of control | [2] 105 % of control | [3] 106 % of control

COc1cccc(-c2nc(SCC(N)=O)[nH]c(=O)c2C#N)c1
inactive: [12] 112 % of control | [13] 98 % of control | [14] 98 % of control

COc1c(C)n(C)n(-c2ccccc2)c1=O
inactive: dose: 6.25 mg/kg/injection, schedule: Q01DX005 (ip), vehicle: saline 108 % of control | dose: 12.5 mg/kg/injection, schedule: Q01DX005 (ip), vehicle: saline 98 % of control | dose: 25.0 mg/kg/injection, schedule: Q01DX005 (ip), vehicle: saline 108 % of control | dose: 50.0 mg/kg/injection, schedule: Q01DX005 (ip), vehicle: saline 102 % of control | dose: 100.0 mg/kg/injection, schedule: Q01DX005 (ip), vehicle: saline 105 % of control | dose: 200.0 mg/kg/injection, schedule: Q01DX005 (ip), vehicle: saline 102 % of control
